Source: US4708966A, “Novel anti-inflammatory agents, pharmaceutical compositions and methods for reducing inflammation” (The Procter & Gamble Company, priority 1986, dated 1987)

Experiments:
[1] = test system: carrageenan rat paw edema; experiment: Carrageenan Rat Paw Edema Test; format: in vivo, Male Sprague-Dawley rats; settings: for ED35: 4 h, oral, by regression analysis, read-out: ID35; for inhibition in vivo at 100 mg/kg: po, 100 mg/kg P.O., paw volume 4 h after carrageenan, vs control group, read-out: Percent Inhibiton at 100 mg/kg dose P.O
Experimental: Carrageenan Rat Paw Edema Test
Male Sprague-Dawley rats (Charles River Laboratories) are weighed and food fasted overnight. The animals are then divided into four to six groups of six animals each according to body weights (average about 145 g) so that each group has about the same average body weight (within 10 g).
The following morning animals are dosed with the test compound and then placed in individual cages. For oral dosing, the drug is suspended in 0.5% methyl cellulose with 2% Tween 80, and delivered via stomach tube in a 5 ml volume.
Paw volumes (0 time) are determined on both hind paws with a mercury displacement device equipped with a transducer and digitizer. One hour after dosing the test compound, the animals are placed in a plastic restrainer and 50 ul of a 1% (w/w) carrageenan solution in 0.9% saline is injected into the ventral surface of the left rear paw. Four hours after the carrageenan injection, the paw volumes are again determined.
The results are expressed as percent inhibition of the mean paw volume of the test group relative to the control group. Statistical differences are determined by one way analysis of variance. ID35 values are determined by regression analysis.

[2] = test system: oxazolone-induced inflamed mouse ear; experiment: Oxazolone-Induced Inflamed Mouse Ear Test (Ox-IMET); format: in vivo, Adult male Cox ICR mice; settings: topical, 25 ul of 10% in ethanol, 24 h after challenge, vs control group, read-out: Percent Inhibition
Experimental: Oxazolone-Induced Inflamed Mouse Ear Test ("Ox-IMET")
Adult male Cox ICR mice, 25-35 g, are sensitized by applying 3% oxazolone in olive oil to the clipped abdomen of each animal using a cotton swab. One week later, the mice are challenged on the inner surface of the left ear with 3% oxazolone in aceotone. At the same time 25 ul of the test compound (10% in ethanol) is applied to the outer surface of the same ear. Twenty four hours after the challenge, the animals are sacrificed by cervical dislocation and both ears are removed. A 5 mm punch biopsy is removed from both ears and is weighed to the nearest 0.1 mg on a Cahn electrobalance. Ten animals are used per group. The study usually consists of 4 to 6 groups, of which one is a control group which is challenged on the left ear, but is not treated with a test compound. The results are expressed as percent inhibition of the swelling response compared to the control group. Statistical tests for significance between groups are made using a one way analysis of variance of the ear weight differences.

[3] = test system: arachidonic acid-induced inflamed mouse ear; experiment: Arachidonic Acid-Induced Inflamed Mouse Ear Test; format: in vivo, Adult male Cox ICR mice; settings: for inhibition in vivo at 50 µg/ear: Mus musculus, 50 ug/ear topical, 3 hours, read-out: Percent Inhibition at 50 ug/ear topical dose; for ID50: topical, by regression analysis
Experimental: Arachidonic Acid-Induced Inflamed Mouse Ear Test
All drugs are dissolved with arachidonic acid in the vehicle. At the end of 3 hours, animals are sacrificed by cervical dislocation and both ears are removed. A 5 mm punch biopsy is removed from both ears and is weighed to the nearest 0.1 mg on a Cahn electrobalance. Ten animals are used per group. The study usually consists of 4 to 6 groups, of which one is a control group which is treated on the left ear with only arachidonic acid in the vehicle. The results are expressed as percent inhibition of the swelling response compared to the control group. Statistical tests for significance between groups are made using a one way analysis of variance of the ear weight differences. ID50 values are determined by regression analysis.

Structure (SMILES)	ED35 [1]	inhibition in vivo at 100 mg/kg [1]	inhibition in vivo at 10 % [2]	inhibition in vivo at 50 µg/ear [3]	ID50 [3]
C#CC(=O)c1cc(C(C)(C)C)c(O)c(C(C)(C)C)c1 [Compound 1, 4-propynoyl-2,6-di-t-butylphenol]	40 mg/kg	65%			
C#CC(O)c1cc(C(C)(C)C)c(O)c(C(C)(C)C)c1 (stereo not shown) [Compound 2, 4-(1'-hydroxy-2'-propynyl)-2,6-di-t-butylphenol]	46.8 mg/kg	75.6%	27.3%		
C#CCC(=O)c1cc(C(C)(C)C)c(O)c(C(C)(C)C)c1 [Compound 3, 4-(3'-butynoyl)-2,6-di-t-butylphenol]	9.9 mg/kg	66.9%		61.6%	22.7 ug/ear
C=C=CC(=O)c1cc(C(C)(C)C)c(O)c(C(C)(C)C)c1 [Compound 4, 4-butadienoyl-2,6-di-t-butylphenol]		64.9%		79.6%	6.6 ug/ear
C#CCCC(=O)c1cc(C(C)(C)C)c(O)c(C(C)(C)C)c1 [Compound 5, 4-(4'-pentynoyl)-2,6-di-t-butylphenol]	8.1 mg/kg	61.3%	25.3%		
C=CCCC(=O)c1cc(C(C)(C)C)c(O)c(C(C)(C)C)c1 [Compound 6, 4-(4'-pentenoyl)-2,6-di-t-butylphenol]	3.3 mg/kg	71.2%	46%		
C#CCC(C(=O)c1cc(C(C)(C)C)c(O)c(C(C)(C)C)c1)C(OC)OC (stereo not shown) [Compound 7, 4-(2'-dimethoxymethyl-4'-pentynoyl)-2,6-di-t-butylphenol]		53.6%	40.9%		
C#CCC(C)(C)C(=O)c1cc(C(C)(C)C)c(O)c(C(C)(C)C)c1 [Compound 8, 4-(2', 2'-dimethyl-4'-pentynoyl)-2,6-di-t-butylphenol]		50.4%	38.3%		
C#CC(C)(C)CC(=O)c1cc(C(C)(C)C)c(O)c(C(C)(C)C)c1 [Compound 9, 4-(3',3'-dimethyl-4'-pentynoyl)-2,6-di-t-butylphenol]		41.7%	23.2%		
C#CC(=O)CCc1cc(C(C)(C)C)c(O)c(C(C)(C)C)c1 [Compound 10, 4-(4'-pentyn-3'-one)-2,6-di-t-butylphenol]	24.5 mg/kg	92.2%		64.9%	
C=CCCCC(=O)c1cc(C(C)(C)C)c(O)c(C(C)(C)C)c1 [Compound 12, 4-(5'-hexenoyl)-2,6-di-t-butylphenol]	11.4 mg/kg	59.9%	29.7%		
C#CCCC(C)C(=O)c1cc(C(C)(C)C)c(O)c(C(C)(C)C)c1 (stereo not shown) [Compound 13, 4-(2'-methyl-5'-hexynoyl)-2,6-di-t-butylphenol]	17.9 mg/kg	69.8%		74.4%	17.5 ug/ear
C#CCCCC(O)c1cc(C(C)(C)C)c(O)c(C(C)(C)C)c1 (stereo not shown) [Compound 14, 4-(1'-hydroxy-5'-hexynyl)-2,6-di-t-butylphenol]	30 mg/kg	54.4%			
C#CCCCCc1cc(C(C)(C)C)c(O)c(C(C)(C)C)c1 [Compound 15, 4-(5'-hexynyl)-2,6-di-t-butylphenol]	55.2 mg/kg	75.7%	39.6%		
C#CCCCC(=C)c1cc(C(C)(C)C)c(O)c(C(C)(C)C)c1 [Compound 16, 4-(1'-methylidene-5'-hexynyl)-2,6-di-t-butylphenol]		25.7%	30.3%		
C#CC[C@H](C)CC(=O)c1cc(C(C)(C)C)c(O)c(C(C)(C)C)c1 [Compound 17, 4-((S)-(-)-3'-methyl-5'-hexynoyl)-2,6-di-t-butylphenol]	4.4 mg/kg	75.5%	59.5%		

Structure (SMILES)	ED35 [1]	inhibition in vivo at 100 mg/kg [1]	inhibition in vivo at 10 % [2]	inhibition in vivo at 50 µg/ear [3]	ID50 [3]
C#CC[C@@H](C)CC(=O)c1cc(C(C)(C)C)c(O)c(C(C)(C)C)c1 [Compound 18, 4-((R)-(+)-3'-methyl-5'-hexynoyl)-2,6-di-t-butylphenol]	2.5 mg/kg	72%	54.5%		
C#CCCCC(=O)c1cc(C(C)(C)C)cc(C(C)(C)C)c1 [Compound 19, 1-(5'-hexynoyl)-3,5-di-t-butylbenzene]	45.3 mg/kg	71.7%			
C#CCCCC(=O)c1cc([Si](C)(C)C)c(O)c([Si](C)(C)C)c1 [Compound 20, 4-(5'-hexynoyl)-2,6-bis-trimethylsilylphenol]	34.2 mg/kg	73.1%			
C#CCCCC(=O)c1cc([Si](C)(C)C)cc([Si](C)(C)C)c1 [Compound 21, 1-(5'-hexynoyl)-3,5-bis-trimethylsilylbenzene]	~90 mg/kg	41.7%			
C#CCCCC(=O)c1cc(C(F)(F)F)cc(C(F)(F)F)c1 [Compound 22, 1-(5'-hexynoyl)-3,5-bis(trifluoromethyl)benzene]		47%			
C#CCCCCC(=O)c1cc(C(C)(C)C)c(O)c(C(C)(C)C)c1 [Compound 23, 4-(6'-heptynoyl)-2,6-di-t-butylphenol]	17.4 mg/kg	67.9%			
C#CCCC(=O)CCc1cc(C(C)(C)C)c(O)c(C(C)(C)C)c1 [Compound 24, 4-(6'-heptyn-3'-one)-2,6-di-t-butylphenol]			38.2%		
C#CCC(CC#C)C(=O)CCc1cc(C(C)(C)C)c(O)c(C(C)(C)C)c1 [Compound 25, 4-(4'-(2"-propynyl)-6'-heptyn-3'-one)-2,6-di-t-butylphenol]			40.4%		
C#CCCCCCC(=O)c1cc(C(C)(C)C)c(O)c(C(C)(C)C)c1 [Compound 26, 4-(7'-octynoyl)-2,6-di-t-butylphenol]	110 mg/kg	43.3%			
C=CCCC(=O)/C=C/c1cc(C(C)(C)C)c(O)c(C(C)(C)C)c1 [Compound 28, 4-((E)-1',6'-heptadiene-3'-one)-2,6-di-t-butylphenol]			37.4%		
COC(CC(=O)c1cc(C(C)(C)C)c(O)c(C(C)(C)C)c1)OC [Compound 29, 4-(3',3'-dimethoxypropionyl)-2,6-di-t-butylphenol]	28.2 mg/kg	70.7%			
CCOC(CC(=O)c1cc(C(C)(C)C)c(O)c(C(C)(C)C)c1)OCC [Compound 31, 4-(3',3'-diethoxypropionyl)-2,6-di-t-butylphenol]				82.8%	15.3 ug/ear
CC(C)(C)c1cc(C(=O)CC2OCCS2)cc(C(C)(C)C)c1O (stereo not shown) [Compound 32, 4-(2'-(1",3"-oxathiolane)acetyl)-2,6-di-t-butylphenol]		50.8%	44.5%		
COC(Cc1cc(C(C)(C)C)c(O)c(C(C)(C)C)c1)OC [Compound 33, 4-(2',2'-dimethoxyethyl)-2,6-di-t-butylphenol]			54.1%		
COC(CC(=O)CCc1cc(C(C)(C)C)c(O)c(C(C)(C)C)c1)OC [Compound 34, 4-(5',5'-dimethoxy-3'-pentanone)-2,6-di-t-butylphenol]		66.1%			
C#CCC(C)(C)CC(=O)c1cc(C(C)(C)C)c(O)c(C(C)(C)C)c1 [Compound 35, 4-(3',3'-dimethyl-5'-hexynoyl)-2,6-di-t-butylphenol]		61.1%			
